The values below come from patent publication US20110038931A1, “COMPOSITE PREPARATION” (HANALL BIOPHARMA CO., LTD., priority 2008, published 2011).

Assay [1] relates to ADP-induced platelet aggregation. Briefly: Measurement of ADP-induced platelet aggregation in SD rats (PRP, aggregometer). The class given is in vivo, Rats (male). Particulars: single drug 10 mg/kg, light. On the procedure: (§1) Animal tests supporting the effects of the present invention were carried out as described in Table 8 below.
The subject of the next assay is SD rats. Kind of assay: Bleeding time measurement in SD rats. The class given is in vivo, Rats (male). To be noted: 10 mg/kg p.o. once, light, 2 hours after administration. As to the method:
as §1

Structures are written as SMILES.

Molecule `COC(=O)[C@H](c1ccccc1Cl)N1CCc2sccc2C1` [Clopidogrel, methyl (+)-(S)-α-(o-chlorophenyl)-6,7-dihydrothieno[3,2-c]pyridine-5(4H)-acetate] returned a Platelet aggregation in assay [1] of 77.1 ± 20.9%. In addition, the Bleeding time with SD rats stood at 1177 ± 729 s.

Regarding `CC(=O)Oc1ccccc1C(=O)O` [Aspirin, acetylsalicylic acid], the Platelet aggregation in assay [1] is 83.5 ± 16.7%. For the same molecule, the Bleeding time in the assay with SD rats was determined as 930 ± 296 s.
